The values below come from US20240360159A1, “NOVEL APPLICATIONS FOR OXAZABOROLIDINES AND NEW METHODS OF MANUFACTURE THEREOF” (Pathway Intermediates Limited, priority 2021, published 2024).

Data set [1] relates to broiler (Ross 308; mixed sex). The experiment in a line: Growth performance in broilers, feed additive (Example 4). In kind it is in vivo. As to conditions: 0.055% in feed. As to the method:
The pure oxazaborolidine compound 5 (R)-(+)-2-Methyl-CBS-oxazaborolidine prepared according to Example 1 was investigated to assess its potential as a growth promoter in poultry.
240 birds, 1-day old broiler (Ross 308; mixed sex) were treated over 32 days. Two dietary groups were given six replicates per diet; […]. The two treatments consisted of (1) a control basal diet and (2) feed supplemented with a feed additive according to an embodiment of the present invention (0.055% (R)-(+)-2-Methyl-CBS-oxazaborolidine).
(§1) The feeding programme followed a typical feeding program on a farm (3 phases: starter; grower; finisher) with the feed additives added to the basal diet with top dressing.
(§2) The following measurements were taken:
Growth Performance: Body weight (BW); Weight gain (Average Daily Gain-ADG); Feed intake (Average Daily Feed Intake—ADFI); FCR (food conversion ratio-feed input divided by feed output).

The subject of the next data set is cecal microbiome. Kind of data set: Cecal bacterial microbiome α-diversity by 16S sequencing (Example 5). As to conditions: first week; genus level; compared to the basal control; p=0.0184 (Compound 1) and 0.0393 (Compound 2), two-way ANOVA; 0.1% in diet. It counts as in vivo, broiler chickens. As to the method:
(§3) 1200 birds, 1-day old broiler (Ross 308; mixed sex) were treated over 32 days. 4 dietary groups were assessed with 6 replicates per diet; 50 birds per pen. The four Dietary groups consisted of (1) a control basal diet and (2) feed supplemented with a feed additive according to an embodiment of the present invention (0.1% 2-butyl-3,4 dimethyl-5-phenyl 1,3,2-oxazaborolidine-compound 2), (3) feed supplemented with a feed additive according to another embodiment of the present invention (0.1% 3,4-dimethyl-2-5-diphenyl-1,3,2-oxazaborolidine-compound 1) and (4) feed supplemented with the known antibiotic, ampicillin (0.1%).
Microbiome: Cecal samples were harvested at three time points (week 1, week 3 and week 5). Six replicates were harvested per dietary group. Total DNA was purified and the bacterial microbiome was analysed by 16S sequencing.
Plots display the smallest and largest value as the whiskers, with the box comprising the 25th percentile, median and 75th percentile.

Data set [2] concerns broiler (Ross 308; mixed sex). The experiment in a line: Growth performance in broilers, feed additives vs ampicillin (Example 5). It counts as in vivo. As to conditions: for ADFI / ADG / BW / FCR / Mortality / Survivability: 0.1% in feed. As to the method: The pure oxazaborolidines prepared by the method of Example 1 was investigated to assess its potential as a growth promotor in poultry.
as §3, §1, §2
Growth Performance: Body weight (BW); Weight gain (Average Daily Gain—ADG); Feed intake (Average Daily Feed Intake—ADFI); FCR (food conversion ratio—feed input divided by feed output); Mortality Production Index.

Where [3] appears, read: 0.1% in diet, compared to the basal diet Control.

Marks after values point to notes of the source that are not given here.

Turning to `CB1OC(c2ccccc2)(c2ccccc2)[C@H]2CCCN12` [Compound 5, (R)-(+)-2-Methyl-CBS-oxazaborolidine], in data set [1] (Finisher (22-32 d)), the ADFI is 147.8 g, the ADG was found to be 90.1 g, the BW turned out to be 2078.6 g and the FCR was determined as 1.64. In data set [1] (Grower (8-21 d)), this compound came in with an ADFI of 68.3 g, an ADG of 48.3 g, a BW of 816.9 g and an FCR of 1.41. In data set [1] (Overall (1-32 d)), this compound showed an ADFI of 89.5 g, an ADG of 58.2 g and an FCR of 1.52. In data set [1] (Starter (1-7 d)), the ADFI came to 15.5 g, the ADG turned out to be 14.2 g, the BW came out at 140.7 g and the FCR is recorded as 1.08.
On to `CCCCB1OC(c2ccccc2)C(C)N1C` (stereo not drawn) [Compound 2, 2-butyl-3,4 dimethyl-5-phenyl 1,3,2-oxazaborolidine], for which, in the data set on cecal microbiome, the “α-diversity of the cecal microbiome” value is on record as “significantly increased”. In data set [2] (setting [3]), the “decrease of overall FCR” value is recorded as 1.76%, the “increase of overall ADFI” value came to 4.6% and the “increase of overall ADG” value is recorded as 5.7%. In data set [2] (Grower (8-21 d)), the ADFI was 80.7^B g, the ADG is 58.6^B g, the BW was 1002.2^B g and the FCR was 1.42^c. Further, the Mortality in data set [2] (Grower (8-21 d)) worked out at 1.12%. Further, in data set [2] (Grower (22-32 d)), the ADFI is 144.0^B g, the ADG is 76.1^B g, the BW is recorded as 1839.0^B g and the FCR came out at 2.09. In data set [2] (Grower (22-32 d)), this compound showed a Mortality of 0.42%. For the same compound, in data set [2] (Overall (1-32 d)), the ADFI is reported as 89.3^B g, the ADG is on record as 56.1^B g, the FCR is on record as 1.67^xy and the Survivability is listed as 96.7%. In addition, in data set [2] (Starter (1-7 d)), the ADFI is listed as 20.4^B g, the ADG was 19.6^B g, the BW is on record as 182.0^B g and the FCR is on record as 1.04^B. Also, in data set [2] (Starter (1-7 d)), the Mortality was 1.33%. Besides, the “increase in body weight gain” value in data set [2] (finisher phase, 0.1% in diet, compared to the basal diet Control) was found to be 5.7%. The “increase in body weight gain” value in data set [2] (grower phase, 0.1% in diet, compared to the basal diet Control) is given as 8.7%. Moreover, the “increase in body weight gain” value in data set [2] (starter phase, 0.1% in diet, compared to the basal diet Control) is 4.5%.
As for `CC1(C)S[C@@H]2[C@H](NC(=O)[C@H](N)c3ccccc3)C(=O)N2[C@H]1C(=O)O` [ATB, ampicillin, reference compound], in data set [2] (Grower (8-21 d)), the ADFI is given as 85.9^A g, the ADG is listed as 62.6^A g, the BW was 1074.6^A g and the FCR is 1.42^bc. In addition, the Mortality in data set [2] (Grower (8-21 d)) was found to be 1.53%. Besides, in data set [2] (Grower (22-32 d)), the ADFI is listed as 155.9^A g, the ADG is 83.0^A g, the BW is on record as 1987.4^A g and the FCR is 2.06. Also, the Mortality in data set [2] (Grower (22-32 d)) worked out at 0.00%. Besides, in data set [2] (Overall (1-32 d)), the ADFI was 96.0^A g, the ADG was 60.7^A g, the FCR is 1.66^y and the Survivability came out at 95.4%. Moreover, in data set [2] (Starter (1-7 d)), the ADFI is listed as 21.9^A g, the ADG is 22.0^A g, the BW is reported as 199.1^A g and the FCR is 0.99^C. For the same compound, the Mortality in data set [2] (Starter (1-7 d)) turned out to be 2.33%.
On to `C[C@H]1[C@@H](c2ccccc2)OB(c2ccccc2)N1C` [Compound 1, 3,4-dimethyl-2-5-diphenyl-1,3,2-oxazaborolidine], for which, in the data set on cecal microbiome, the “α-diversity of the cecal microbiome” value is “significantly increased”. The “decrease of overall FCR” value in data set [2] (setting [3]) was 0.59%. Moreover, in data set [2] (Grower (8-21 d)), the ADFI is given as 72.7^C g, the ADG is 51.5^C g, the BW is listed as 892.8^C g and the FCR is listed as 1.46^ab. Also, the Mortality in data set [2] (Grower (8-21 d)) was 0.37%. Moreover, in data set [2] (Grower (22-32 d)), the ADFI is reported as 133.5^C g, the ADG was 70.6^C g, the BW is on record as 1669.4^C g and the FCR is on record as 2.08. This compound also yielded a Mortality in data set [2] (Grower (22-32 d)) of 0.40%. Further, in data set [2] (Overall (1-32 d)), the ADFI is given as 82.0^C g, the ADG was 50.8^C g, the FCR is listed as 1.69^x and the Survivability is 97.9%. In addition, in data set [2] (Starter (1-7 d)), the ADFI is 19.5^B g, the ADG is on record as 18.2^C g, the BW is 172.4^C g and the FCR is given as 1.07^A. Besides, in data set [2] (Starter (1-7 d)), the Mortality was 1.00%.
